Source: PMC12691742, “Anti-Cancer Outcome of Glucocorticoid Receptor Transrepression by Synephrine Derivatives in Hematological Malignancies” (International Journal of Molecular Sciences, 2025)

Columns and labels:
[1] = tested on: Rankl, Mmp9, Tsc2, Trap, Bglap mRNA expression in bone tissue; experiment: Glucocorticoid-induced osteoporosis model: Q-PCR of marker genes in bone tissue; format: in vivo, mice; conditions: 5 weeks; Dex 20 mg/kg, 10S-E2 10 mg/kg
Method: (A) H&E bone staining and quantification of cortical bone thickness. (B) Q-PCR analysis of Rankl, Mmp9, Tsc2, Trap, and Bglap mRNA expression in bone tissue. […] (C) H&E skin staining and quantification of dermal adipose thickness (50 images per treatment group of 10 animals). Statistically significant differences compared to the control: * p < 0.05, ** p < 0.01.
Total RNA isolation from cell cultures and murine bones, reverse transcription, and Q-PCR were performed as described in [36]. […] Results were normalized to the expression of the housekeeping RPL27 и Rpl27 genes. The experiments were performed in triplicate.
The protocol for the experiment was approved by the local N.N. Blokhin National Medical Research Center Ethics Committee and corresponded to the guidelines for the welfare and use of animals in cancer research adopted by The United Kingdom Coordinating Committee on Cancer Prevention Research. […] Body weight was recorded twice a week for toxicity control.

[2] = tested on: leukemia and lymphoma cells (Granta, K562); parameters: method as in PMID 39858397; conditions: cited from earlier work
P388 murine lymphoma = experiment: Transplantable P388 murine lymphoma model; format: in vivo, mice; conditions: P388 model; Dex 1 mg/kg, 10S-E2 10 mg/kg i.p. 3 times per week
Method: Figure 5 Pro-apoptotic and anti-cancer effects of synephrine derivatives in vitro and in vivo. (A) Effect of 4S-C2, 8S-E3, 10S-E2, and 13S-G2 on cell cycle progression in K562 and Granta cells after 24 h of incubation. The cells were fixed with ethanol, stained with propidium iodide, and analyzed using flow cytometry. Statistically significant difference compared to control: *—p < 0.05, **—p < 0.01 (n = 3). (B) In vivo anti-cancer activity was evaluated using the transplantable P388 murine lymphoma model. […] Tumor nodule size was measured twice a week using digital calipers. Statistically significant differences compared to the control: * p < 0.05, ** p < 0.01.
The protocol for the experiment was approved by the local N.N. Blokhin National Medical Research Center Ethics Committee and corresponded to the guidelines for the welfare and use of animals in cancer research adopted by The United Kingdom Coordinating Committee on Cancer Prevention Research. P388 cells were injected i.p. into 5-week-old female DBA/2 mice (“Stolbovaya Farm”, Stolbovaya, Russia). After 15 days, the cells were collected from the peritoneum, washed, and resuspended in PBS. For the experiments, 0.1 mL containing 2 million cells obtained from the ascites was inoculated s.c. in 5-week-old female BDF1 mice (“Stolbovaya Farm”, Stolbovaya, Russia). […] Body weight was recorded twice a week for toxicity determination. Tumor size was measured three times per week using digital calipers.

GR = target: T1, GR (Homo sapiens, UniProt P04150); experiment: GR radioligand binding assay, competition with [3H]Dex in K562 cells
T1 construct: endogenous in cells; host or cells: K562
T1 sequence (P04150 1-777): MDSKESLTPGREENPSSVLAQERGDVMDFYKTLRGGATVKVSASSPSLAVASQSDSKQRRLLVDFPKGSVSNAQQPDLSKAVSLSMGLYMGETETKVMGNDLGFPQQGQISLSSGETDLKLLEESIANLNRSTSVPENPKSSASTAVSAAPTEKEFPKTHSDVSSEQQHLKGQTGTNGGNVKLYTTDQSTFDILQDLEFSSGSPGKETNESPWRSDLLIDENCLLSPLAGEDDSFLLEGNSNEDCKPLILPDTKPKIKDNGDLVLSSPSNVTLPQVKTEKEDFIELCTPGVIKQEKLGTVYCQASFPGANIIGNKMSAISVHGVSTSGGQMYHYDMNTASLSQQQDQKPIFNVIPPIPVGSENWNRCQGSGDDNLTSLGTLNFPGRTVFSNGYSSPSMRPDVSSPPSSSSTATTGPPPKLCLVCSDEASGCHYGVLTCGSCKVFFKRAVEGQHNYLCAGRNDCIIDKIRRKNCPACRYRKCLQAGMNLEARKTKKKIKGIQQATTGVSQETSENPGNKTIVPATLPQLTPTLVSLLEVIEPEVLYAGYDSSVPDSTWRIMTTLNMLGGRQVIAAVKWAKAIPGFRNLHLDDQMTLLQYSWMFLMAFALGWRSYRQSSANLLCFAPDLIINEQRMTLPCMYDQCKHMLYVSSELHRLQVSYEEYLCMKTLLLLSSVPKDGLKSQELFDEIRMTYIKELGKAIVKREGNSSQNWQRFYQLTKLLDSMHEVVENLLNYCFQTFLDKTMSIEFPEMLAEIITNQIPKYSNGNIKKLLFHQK
Method: (A,B). […] The stability of the complex was simulated using molecular dynamics in the GROMACS program. (C) GR binding affinity was estimated using a radioligand binding assay. […] Cell lysate radioactivity was measured using a RackBeta 1215 LC (LKB Wallac, Turku, Finland) spectrometer for 4 min. […] The experiments were performed in triplicate (n = 3).
After 90 min of incubation, the cells were washed twice by centrifugation in cold serum-free medium (1500 rpm, 5 min). The cells were then lysed with RIPA buffer (50 mM Tris (pH 8.0), 150 mM NaCl, 1 mM ethylenediaminetetraacetic acid, 0.1% sodium dodecyl sulfate, 0.5% sodium deoxycholate, 1% triton-X100, 10% glycerin, and protease inhibitor) for 20 min. Lysates were transferred to scintillation liquid, and radioactivity was measured using a RackBeta 1215 LC spectrometer for 4 min. […] IC50 was determined using GraphPad Prism software, Ver.7.0. […] “Top” meant the highest value in dpm and was equal to 100%, while the “bottom” was considered as the lowest value (0%). […] The IC50 values for each ligand were determined by plotting these curves. The experiments were performed in triplicate.

Compound: CCCCCCNCC(O)c1ccc(OCc2ccccc2)cc1 (stereo not drawn) [10S-E2, 1-[4-(benzyloxy)phenyl]-2-(hexylamino)ethanol]
- Mmp9 mRNA expression in bone tissue [1]: significantly downregulated
- Rankl mRNA expression in bone tissue [1]: significantly downregulated
- Trap mRNA expression in bone tissue [1]: significantly downregulated
- Tsc2 mRNA expression in bone tissue [1]: significantly downregulated
- IC50 ([2]; leukemia and lymphoma cells, read-out: cell viability IC50): 13 to 26 µM
- concentrations of cytotoxic effects ([2]; mantle cell lymphoma Granta and chronic myeloleukemia K562 cells): 10 to 20 µM
- animal body weight change vs control (P388 murine lymphoma): no statisticall y si gnificant differences
- IC50 (GR): 0.56 µM
